Assay results as given in US12156877B1, “Methods of treating conditions related to a thiamine deficiency, a thiamine-dependent enzyme, or an associated cofactor” (The Regents of the University of California, priority 2019, dated 2024).

What was measured:
[1] = tested on: mice with thiamine-deficiency; experiment: Symptoms caused by thiamine deficiency (blood lactate, grip strength, body temperature) under different oxygen tensions; format: in vivo
Source text: FIGS. 6A-6E depict the results of lowering FiO2 on the symptoms caused by thiamine deficiency. Blood lactate measured in mice housed under different oxygen tensions 21 and 35 days after the diets started. […] Muscle strength assessed by grip strength of mice administered with 17 ppm or 0 ppm thiamine for 21 days. Muscle strength is compromised in mice with thiamine-deficiency under 55% and 21% oxygen (FIG. 6C). […] Student's t-test * p<0.05, ** p<0.01, […]. While the present invention has been described with reference to the specific embodiments thereof, it should be understood by those skilled in the art that various changes may be made and equivalents may be substituted without departing from the true spirit and scope of the invention. In addition, many modifications may be made to adapt a particular situation, material, composition of matter, process, process step or steps, to the objective, spirit and scope of the present invention. All such modifications are intended to be within the scope of the claims appended hereto.

WKS mouse models = experiment: Body weight and disease onset of WKS mouse model (0 ppm thiamine and pyrithiamine injections) in normoxia versus hypoxia; format: in vivo, mice
Description: FIG. 3 depicts the body weight of Wernicke-Korsakoff (WKS) Animal Model (0 ppm thiamine and pyrithiamine injections) in normoxia versus hypoxia using the methods described herein.
Hypoxia and moderate hyperoxia exposure were tested in these mouse models of WK syndrome. Six groups of mice for each different oxygen exposure will be used—(no disease, moderate disease, extreme disease)×(with or without thiamine treatment starting day 10 of the disease model). […] This sample size should be sufficient to detect a 30% increase in survival with 80% power. Disease progression in these different conditions will be carefully monitored. Daily body weights from the beginning of treatment will be taken. Additionally, behavior was monitored on a weekly basis using rotarod tests, open field experiments and the Y-maze memory test. For 3 mice per group, T2-weighted MRI scans was performed once per week. This will allow the monitoring of the disease progression and reversal. For a separate set of 3 mice per group, mice were sacked, and neuropathology performed, staining for neuronal cell loss (using NeuN) or neuroinflammatory signatures (using antibodies against GFAP) similar to that performed in Jain et. al.
FIG. 3 depicts the results of WKS mouse models being treated at 21% O2 (normoxia) and 11% O2 (hypoxia) for a span of 20 days. […] Hypoxia began on Day 3 of the experiment.

[2] = tested on: mice on a thiamine-deficient diet
[3] = tested on: mouse models for Wernicke-Korsakoff syndrome; details: 500 mg thiamine 3×/day; both models (thiamine-deficient diet, with or without pyrithiamine); cited from earlier work

Row | Compound | body temperature ([1]; 11% O2, thiamine-deficient diet for 43 days, mice under normoxic air exhibit hypothermia) | muscle strength assessed by grip strength ([1]; 55% oxygen, 0 ppm thiamine for 21 days) | blood lactate ([1]; 55% oxygen, day 21 and day 35 after the diets started, severe disease state) | disease onset (physiological signs of WKS) (WKS mouse models; 11% O2 (hypoxia) begun on Day 3, span of 20 days, versus 21% O2 (normoxia)) | significant drop of body-weight at Day 14 (WKS mouse models; 11% O2 (hypoxia), body-weight at 21% O2 dropped significantly at Day 14) | onset of weight loss ([2]; 8% O2 (extreme hypoxia)) | survival at 60 days after start of thiamine-deficient diet ([2]; 8% O2 (extreme hypoxia)) | survival time ([2]; 8% O2 (extreme hypoxia)) | extension of survival time ([2]; 11% O2, versus 21% O2 (median survival time 37 days)) | rate of body weight loss ([2]; 11% O2, versus 21% O2 (weight loss began at 21 days)) | disease progression ([2]; 55% O2) | disease progression in thiamine-deficiency models [3]
1 | O=O [O2, oxygen] | normal body temperatures | compromised | lactic acidosis | prevented disease onset | did not | further delayed the onset of weight loss | some mice were still alive at 60 days | extended the survival time | approximately 13 days | lost body weight at a slower rate | exacerbated the disease progression | 
2 | Cc1ncc(C[n+]2csc(CCO)c2C)c(N)n1 [thiamine] |  |  |  |  |  |  |  |  |  |  |  | can be reversed
